From patent US7829063B2, “Development of molecular imaging probes for carbonic anhydrase-IX using click chemistry” (Siemens Medical Solutions USA, Inc., priority 2007, dated 2010) come the findings set out here.

Like-named read-outs stand apart in the source and are kept apart here.

This experiment deals with T1, CA-IX (Homo sapiens, UniProt Q16790).
T1 construct: His tag (C); purchased R&D Systems Inc. 2188-CA; host or cells: mouse myeloma cell line NS0
Briefly: CA-IX combinatorial library screening, competitive fluorescence-based assay with dansylamide (DNSA). The format is binding. The settings on record: 1 h, sample concentrations 100 nM and 1000 nM, DNSA 200 μM, screening at 1 μM. How it is done: General. CA-IX human recombinant enzyme was expressed with a C-terminal His tag in a mouse myeloma cell line, NS0 (R&D Systems Inc., catalog number 2188-CA). The human red blood cells were obtained from Research Blood Components, LLC. All absorbance measurements were performed on a SPECTRA MAX M2 plate reader at 25° C. The LC/MS analyses were performed on an Agilent 1100 series LC/MSD (SL) using a 30×2.1 mm Zorbax C8 column with a Phenomenex C18 pre-column. Compound detection was accomplished by electrospray mass spectroscopy in positive selected ion mode (LC/MS-SIM). The elution solvents were acetonitrile and water, contained 0.05% TFA. Nuclear magnetic resonance (NMR) spectra were obtained on a Bruker AMX 300 MHz spectrometer or a Varian 400. 19F NMR spectra were recorded on a Bruker AMX 282.35 MHz or a Varian 400 spectrometer. The mass spectra were recorded on an Agilent 1100 series LC/MSD with electrospray mass spectroscopic detection. Flash column chromatography was performed on Merck silica gel (40-63 μm) using the solvent system indicated. The radiochemical and chemical purities were analyzed by RP-HPLC.
General Combinatorial Library Screening Protocol for CA-IX
The CA-IX screening assay was employed for testing libraries derived from the various “anchor” molecules, using ethoxzolamide as a positive control. The assay was performed at a substrate (dansylamide, DNSA) concentration of 200 μM, and sample concentrations of 100 nM and 1000 nM, respectively. A modified competitive fluorescence-based assay (A. Jain, S. G. Huang, G. M. Whitesides, J. Am. Chem. Soc. 1994, 116, 5057) was used to measure CA-IX activity. The enzymatic assay was carried out in a 96-well plate. To the wells, deionized water, 40 μL of phosphate buffer (250 mM, pH 7.4), 2.4 μL of CA-IX (17 μM), and 2 μL or 20 μL of inhibitor (concentration of 100 nM or 1000 nM) were added to achieve a final volume of 180 μL. Reactions were initiated by adding 20 μL DNSA (200 μM) to each well and the plate was incubated at 25° C. for 1 hour. The fluorescence intensities from each well of the plate were then read at 460 nm using a plate reader with an excitation wavelength of 290 nm.

[1] abbreviates: Table 1, Libraries 1-3, read-out: In Vitro Binding Assay (Library Screening).
Where [2] appears, read: Table 2, Libraries 4-7, read-out: In Vitro Binding Assay (Library (Screening)).

For `NS(=O)(=O)c1ccc(C(=O)NCc2cn(C3CCN(C(=O)/C=C/c4ccccc4)CC3)nn2)cc1` [DHK97], the inhibition at 1 µM under setting [1] was < 40%.
With `NS(=O)(=O)c1ccc(-c2cn(CC(=O)Nc3nccs3)nn2)cc1` [DHK101], under setting [1], the inhibition at 1 µM was < 40%.
For `NS(=O)(=O)c1ccc(-c2cn(CCC(=O)Nc3ccccc3)nn2)cc1` [DHK102], the inhibition at 1 µM under setting [1] was < 40%.
As to `NS(=O)(=O)c1ccc(-c2cn(-c3cccc(C(=O)NN4CCOCC4)c3)nn2)cc1` [DHK104], under setting [1], the inhibition at 1 µM was < 40%.
For `NS(=O)(=O)c1ccc(-c2cn(CC(=O)NC(Cc3cnc[nH]3)C(=O)O)nn2)cc1` (stereo not shown) [DHK106], under setting [1], the inhibition at 1 µM is < 40%.
On the same count and under the same terms, under `NS(=O)(=O)c1ccc(-c2cn(CC(=O)N3CCN(c4cc(Cl)cc(Cl)c4)CC3)nn2)cc1` [DHK107] stands < 40%; under `NCCCn1cc(-c2ccc(S(N)(=O)=O)cc2)nn1` [DHK108], < 40%; under `NS(=O)(=O)c1ccc(-c2cn(C3CCN(S(=O)(=O)/C=C/c4ccccc4)CC3)nn2)cc1` [DHK109], < 40%.
As for `CCCCCCCCCCC(C(=O)O)n1cc(CNC(=O)c2ccc(S(N)(=O)=O)cc2)nn1` (stereo not shown) [DHK110], under setting [1], the inhibition at 1 µM was < 40%.
For the compound `NS(=O)(=O)c1ccc(-c2cn(C3C(O)C(O)OC3C(O)CO)nn2)cc1` (stereo not shown) [DHK111], the inhibition at 1 µM under setting [1] is < 40%.
For `NS(=O)(=O)c1ccc(C(=O)NCc2cn(C3C(O)C(O)OC3C(O)CO)nn2)cc1` (stereo not shown) [DHK112], under setting [1], the inhibition at 1 µM is < 40%.
For `NS(=O)(=O)c1nc2ccc(OCc3cn(CCN4CCOCC4)nn3)cc2s1` [DHK114], the inhibition at 1 µM under setting [1] was < 40%.
Still for that read-out and setting: to `Cc1ccnc(NC(=O)[C@H](Cc2ccccc2)n2cc(COc3ccc4nc(S(N)(=O)=O)sc4c3)nn2)c1` [DHK115] belongs < 40%; to `NS(=O)(=O)c1nc2ccc(OCc3cn(-c4cccc(C(=O)NN5CCOCC5)c4)nn3)cc2s1` [DHK116], < 40%; to `CC1CCCN(C(=O)C(C(C)C)n2cc(COc3ccc4nc(S(N)(=O)=O)sc4c3)nn2)C1` (stereo not shown) [DHK119], < 40%.
In the case of `Cc1ccc(C)c(CNC(=O)[C@H](Cc2ccccc2)n2cc(COc3ccc4nc(S(N)(=O)=O)sc4c3)nn2)c1` [DHK120], the inhibition at 1 µM under setting [1] was < 40%.
`CC(C)[C@@H](C(=O)NC1CCCCC1)n1cc(COc2ccc3nc(S(N)(=O)=O)sc3c2)nn1` [DHK124]: the inhibition at 1 µM under setting [1] is < 40%.
For `CC(C)[C@@H](C(=O)NCc1ccccc1)n1cc(COc2ccc3nc(S(N)(=O)=O)sc3c2)nn1` [DHK126], the inhibition at 1 µM under setting [1] was < 40%.
In the case of `COC(=O)C(Cc1ccc(C(=O)O)cc1)n1cc(COc2ccc3nc(S(N)(=O)=O)sc3c2)nn1` (stereo not shown) [DHK129], the inhibition at 1 µM under setting [1] was < 40%.
On to `CCCOC(=O)c1ccc(NC(=O)Cn2cc(COc3ccc4nc(S(N)(=O)=O)sc4c3)nn2)cc1` [DHK130], for which the inhibition at 1 µM under setting [1] is < 40%.
Consider `CC(C)(C)c1cc(C(=O)Cn2cc(COc3ccc4nc(S(N)(=O)=O)sc4c3)nn2)cc(C(C)(C)C)c1O` [DHK132], for which, under setting [1], the inhibition at 1 µM is < 40%.
Still for that read-out and setting: under `CC(C)C(C(=O)Nc1ccc(-c2ccccc2)cc1)n1cc(COc2ccc3nc(S(N)(=O)=O)sc3c2)nn1` (stereo not shown) [DHK134] stands < 40%.
On the same count and under the same terms, to `CCCCCC[C@@H](O)[C@@H](O)c1ccc(Cn2cc(COc3ccc4nc(S(N)(=O)=O)sc4c3)nn2)cc1` [DHK135] belongs < 40%; to `NS(=O)(=O)c1nc2ccc(OCc3cn(-c4ccnc5cc(Cl)ccc45)nn3)cc2s1` [DHK136], < 40%.
With `NS(=O)(=O)c1nc2ccc(OCc3cn(CCCCCCO)nn3)cc2s1` [DHK137], the inhibition at 1 µM under setting [1] was < 40%.
For `NS(=O)(=O)c1nc2ccc(OCc3cn(C(c4ccccc4)[C@@H](OC/C=C/c4ccccc4)c4ccccc4)nn3)cc2s1` (stereo partly shown) [DHK138], the inhibition at 1 µM under setting [1] is < 40%.
For `CC(C)[C@@H](C(=O)NCCc1ccsc1)n1cc(COc2ccc3nc(S(N)(=O)=O)sc3c2)nn1` [DHK139], under setting [1], the inhibition at 1 µM is < 40%.
Take `NS(=O)(=O)c1nc2ccc(OCc3cn(CCn4c(=O)[nH]c5ccccc5c4=O)nn3)cc2s1` [DHK140]: the inhibition at 1 µM under setting [1] was < 40%.
For the compound `NS(=O)(=O)c1nc2ccc(OCc3cn(CC(=O)N4CCN(c5cc(Cl)cc(Cl)c5)CC4)nn3)cc2s1` [DHK141], the inhibition at 1 µM under setting [1] is < 40%.
In the case of `NS(=O)(=O)c1nc2ccc(OCc3cn(C4CCN(S(=O)(=O)/C=C/c5ccccc5)CC4)nn3)cc2s1` [DHK143], the inhibition at 1 µM under setting [1] is < 40%.
The same measure, in the same setting: to `NS(=O)(=O)c1nc2ccc(OCc3cn(C4CCN(C(=O)/C=C/c5ccccc5)CC4)nn3)cc2s1` [DHK144] belongs < 40%.
As to `CC(C)[C@@H](C(=O)NCc1ccc(F)cc1)n1cc(-c2ccc(S(N)(=O)=O)cc2)nn1` [DHK165], the inhibition at 1 µM under setting [2] is < 40%.
Turning to `CC(C)[C@@H](C(=O)N(C)Cc1ccccc1)n1cc(-c2ccc(S(N)(=O)=O)cc2)nn1` [DHK166], the inhibition at 1 µM under setting [2] is < 40%.
`CC(C)[C@@H](C(=O)NCc1ccc(C(F)(F)F)cc1)n1cc(-c2ccc(S(N)(=O)=O)cc2)nn1` [DHK168]: under setting [2], the inhibition at 1 µM is < 40%.
Turning to `CC(C)[C@@H](C(=O)N1CCN(c2ccccn2)CC1)n1cc(-c2ccc(S(N)(=O)=O)cc2)nn1` [DHK174], the inhibition at 1 µM under setting [2] was < 40%.
For `CCOC(=O)[C@@H](Cc1ccccc1)NC(=O)[C@H](C(C)C)n1cc(-c2ccc(S(N)(=O)=O)cc2)nn1` [DHK175], the inhibition at 1 µM under setting [2] was < 40%.
Turning to `CCOC(=O)[C@@H](NC(=O)[C@H](C(C)C)n1cc(-c2ccc(S(N)(=O)=O)cc2)nn1)C(C)C` [DHK176], the inhibition at 1 µM under setting [2] is < 40%.
For `COC(=O)[C@H](C)NC(=O)[C@H](C(C)C)n1cc(-c2ccc(S(N)(=O)=O)cc2)nn1` [DHK177], the inhibition at 1 µM under setting [2] is < 40%.
The same measure, in the same setting: under `CC(C)[C@@H](C(=O)NCc1ccccn1)n1cc(-c2ccc(S(N)(=O)=O)cc2)nn1` [DHK178] stands < 40%; under `CC(C)[C@@H](C(=O)NC1CCCCC1)n1cc(-c2ccc(S(N)(=O)=O)cc2)nn1` [DHK179], < 40%.
With `CC(C)[C@@H](C(=O)NCC1CC1)n1cc(-c2ccc(S(N)(=O)=O)cc2)nn1` [DHK180], under setting [2], the inhibition at 1 µM was < 40%.
In the case of `CC(C)[C@@H](C(=O)NCCCO)n1cc(-c2ccc(S(N)(=O)=O)cc2)nn1` [DHK181], under setting [2], the inhibition at 1 µM is < 40%.
Regarding `Cc1onc(-c2ccccc2)c1CNC(=O)[C@H](C(C)C)n1cc(-c2ccc(S(N)(=O)=O)cc2)nn1` [DHK182], the inhibition at 1 µM under setting [2] was < 40%.
For `CCOC(=O)CCN(Cc1ccco1)C(=O)[C@H](C(C)C)n1cc(-c2ccc(S(N)(=O)=O)cc2)nn1` [DHK183], the inhibition at 1 µM under setting [2] is < 40%.
As for `CCOC(=O)C1CCN(C(=O)[C@H](C(C)C)n2cc(-c3ccc(S(N)(=O)=O)cc3)nn2)CC1` [DHK184], the inhibition at 1 µM under setting [2] is < 40%.
For `CC(C)[C@@H](C(=O)N1CCN(CCO)CC1)n1cc(-c2ccc(S(N)(=O)=O)cc2)nn1` [DHK185], the inhibition at 1 µM under setting [2] was < 40%.
As to `CC(C)[C@@H](C(=O)NC1c2ccccc2C[C@@H]1O)n1cc(-c2ccc(S(N)(=O)=O)cc2)nn1` (stereo partly shown) [DHK186], the inhibition at 1 µM under setting [2] is < 40%.
For `CC(C)[C@@H](C(=O)NCC1COc2ccccc2O1)n1cc(-c2ccc(S(N)(=O)=O)cc2)nn1` (stereo partly shown) [DHK187], the inhibition at 1 µM under setting [2] was < 40%.
The same measure, in the same setting: under `CC(C)[C@@H](C(=O)N1CCC(N2CCCC2)CC1)n1cc(-c2ccc(S(N)(=O)=O)cc2)nn1` [DHK188] stands < 40%; under `CC(C)[C@@H](C(=O)NCc1nc2ccccc2n1C)n1cc(-c2ccc(S(N)(=O)=O)cc2)nn1` [DHK189], < 40%.
Turning to `CC(C)[C@@H](C(=O)N1CCN(c2ncccn2)CC1)n1cc(-c2ccc(S(N)(=O)=O)cc2)nn1` [DHK190], under setting [2], the inhibition at 1 µM is < 40%.
Still for that read-out and setting: under `CC(C)[C@@H](C(=O)NCCN1CCN(Cc2ccccc2)CC1)n1cc(-c2ccc(S(N)(=O)=O)cc2)nn1` [DHK191] stands < 40%.
As to `NS(=O)(=O)c1ccc(-c2cn([C@@H](Cc3ccccc3)C(=O)NCc3ccc(F)cc3)nn2)cc1` [DHK-2-1], under setting [2], the inhibition at 1 µM is < 40%.
On to `CN(Cc1ccccc1)C(=O)[C@H](Cc1ccccc1)n1cc(-c2ccc(S(N)(=O)=O)cc2)nn1` [DHK-2-2], for which the inhibition at 1 µM under setting [2] is < 40%.
With `CN(C)Cc1ccc(CSCCNC(=O)[C@H](Cc2ccccc2)n2cc(-c3ccc(S(N)(=O)=O)cc3)nn2)o1` [DHK-2-3], under setting [2], the inhibition at 1 µM was < 40%.
